Results reported in patent EP0391644B1, “Aryl-substituted rhodanine derivatives” (ELI LILLY AND COMPANY, priority 1989, dated 1990).
Where “and” joins values, the source holds several entries; their conditions need not be identical. Identical values can stand only once.

Columns and labels:
[1] = tested on: Dystrophic mice (dy/dy); assay: Muscular Dystrophy Animal Model; type: in vivo
Method: Dystrophic mice (dy/dy) were obtained from Jackson Laboratories after weaning (approximately 21 days) and treatment with the compounds shown in Table V was begun at the first sign of dystrophy. The compounds that were tested were administered in the diet and lifespan was measured during the course of treatment. The food and water sources were located in different parts of the cage requiring the animals to walk from the food source to the water source to survive.

[2] = tested on: adjuvant-induced arthritis; assay: Developing Adjuvant-Induced Arthritis Test in Rats; type: in vivo, male Lewis-Wistar rats; settings: Rattus norvegicus, po, 720 h, AUC of uninjected paw volumes, Days 16 through 30, read-out: % Inhibition of Uninjected Paw Volume Inflammation; for inhibition in vivo at 50 mg/kg: 50 mg/kg P.O. x 29
[3] = tested on: ischemia-induced brain damage in the hippocampal CA1 region; assay: Stroke model in rats; type: in vivo, Male Wistar rats; settings: mean ± standard error, scale 0 = no damage to 3 = severe damage of CA1 layer
From the text: Strokes were produced in rats by occluding the four arteries that supply blood to the brain according to the following procedure. Male Wistar rats were anesthetized with Metofane and placed into a stereotaxic instrument. A longitudinal incision was made on the dorsal surface of the neck. The neck muscles were reflected to expose the dorsal surface of the spinal column. The two vertebral arteries were exposed where they pass through the first cervical vertebra. Both arteries were permanently occluded by the application of electrocautery. After coagulation of the vertebral arteries, the rat was removed from the stereotaxic instrument and the surgical wound was sutured. Two longitudinal incisions were then made on the ventral surface of the neck. The two common carotid arteries were exposed and dissected free from surrounding nerves and connective tissue. An atraumatic clasp, fabricated mainly from silicon rubber tubing, was placed around each carotid artery in a manner such that the vessel was not traumatized or occluded. The surgical wounds were then closed. The atraumatic clasps were designed in such a manner that they could be tightened to occlude the carotid arteries by pulling on a small silastic thread that was allowed to protrude from the wound. Circulation to the brain through the carotids could be restored by relieving the tension on the silastic threads. After the surgery, the rats were allowed to recover for 24 hours.
On the day of testing, compounds were suspended in 2% acacia and were administered orally at various times before stroke induction. Strokes (cerebral ischemia) were induced by tightening the clasps around the carotids for a period of 30 minutes. During this time, rats in which strokes had successfully been produced lost the righting reflex and became unresponsive to stimuli. After 30 minutes of ischemia, tension on the clasps was removed and blood flow to the brain restored. Rats were again treated with compounds on the morning after the stroke. On the third day after the stroke the animals received an overdose of barbituate anesthetic, and the brain was perfused in situ with 10% neutral, buffered formalin. After perfusion with amounts of formalin adequate to fix the brain, the brains were removed and stored in 10% formalin until histological sections could be prepared.
One of the areas of the brain that is most susceptible to ischemia induced damage both in the rat and the human is the CA1 pyramidal cell layer of the hippocampus. In animals that remain unresponsive for the 30 minute period of ischemia, the CA1 pyramidal cell layer is completely destroyed. This layer of cells was examined microscopically in histological sections prepared from the hippocampus. Brain damage was rated according to the following scale: 0 = no damage, completely intact cell layer 1 = mild damage, one-third of CA1 layer dead 2 = moderate damage, two-thirds of CA1 layer dead 3 = severe damage, complete destruction of CA1 layer
Damage in 10-12 sections from each brain was assessed in order to obtain an accurate estimate of damage. An average damage score was calculated for each treatment group. Scores from treated groups were compared statistically with scores from control groups which received only the vehicle (2% acacia) that was used to suspend the compounds. The level of significance was determined using Student's "t-test".

[4] = tested on: inflammation; assay: Carrageenin Assay; type: in vivo; settings: Rattus norvegicus, po; 50 mg/kg orally by gavage; carrageenin-injected hind paws of rats; read-out: Percent Inhibition
Method: The compounds were evaluated for antiinflammatory activity in the test method described by C.A. Winter, Proc. Soc. Exp. Biol. Med., 111, 544 (1962). In this test, inflammation is created by injecting carrageenin into the hind paws of rats. Test compounds are administered prior to injection to determine percent inhibition of the subsequent inflammation in comparison with control animals.

[5] = 0.03 percent by weight of compound in diet
[6] = 100 mg/kg given orally as a suspension in 2% acacia
[7] = 50 mg/kg given orally as a suspension in 2% acacia

SMILES | inhibition in vivo at 50 mg/kg [2] | Damage Score [3, 6] | also measured
CN1CSC(=Cc2cc(C(C)(C)C)c(O)c(C(C)(C)C)c2)C1=O [Example 10, 5-{[3,5-bis(1,1-dimethylethyl)-4-hydroxyphenyl]methylene}-3-methyl-4-thiazolidinone] | 57% | 0.75 ± 0.26 (p<0.02) | Average Life Span [1, 5]: 93 days and 112 days and 90 days and 80 days and 110 days; Average Life Span ([1]; 0.08 percent by weight of compound in diet): 45 days and 67 days; Average Life Span ([1]; 0.3 percent by weight of compound in diet): 83 days
Cc1cc(C=C2SCN(N(C)C)C2=O)cc(C(C)(C)C)c1O [Example 62, 5-{[3-(1,1-dimethylethyl)-4-hydroxy-5-methylphenyl]methylene}-3-dimethylamino-4-thiazolidinone] | 11.2% | 1.2 ± 0.3 (p<0.05) | 
CN(C)N1CSC(=Cc2cc(C(C)(C)C)c(O)c(C(C)(C)C)c2)C1=O [Example 21, 5-{[3,5-bis(1,1-dimethylethyl)-4-hydroxyphenyl]methylene}-3-dimethylamino-4-thiazolidinone] | 81% |  | Average Life Span [1, 5]: 151 days; Damage Score [3, 7]: 1.9 ± 0.3
CC(C)(C)c1cc(C=C2CCNC2=O)cc(C(C)(C)C)c1O [Example 69, 3-{[3,5-bis(1,1-dimethylethyl)-4-hydroxyphenyl]methylene}-2-pyrrolidinone] |  |  | Damage Score [3, 7]: 0.98 ± 0.42 (p=0.037)
CSCCN1CSC(=Cc2cc(C(C)(C)C)c(O)c(C(C)(C)C)c2)C1=O [Example 6, 5-{[3,5-bis(1,1-dimethylethyl)-4-hydroxyphenyl]methylene}-3-[2-(methylthio)ethyl]-4-thiazolidinone] |  | 2.5 ± 0.2 | 
CC(C)(C)c1cc(C=C2SCN(CC(N)=O)C2=O)cc(C(C)(C)C)c1O [Example 5, 5-{[3,5-bis(1,1-dimethylethyl)-4-hydroxyphenyl]methylene}-4-oxo-3-thiazolidineacetamide] | 7% | 1.8 ± 0.4 (p=0.05) | 
CNCCN1CSC(=Cc2cc(C(C)(C)C)c(O)c(C(C)(C)C)c2)C1=O [Example 28, 5-{[3,5-bis(1,1-dimethylethyl)-4-hydroxyphenyl]methylene}-3-[2-(methylamino)ethyl]-4-thiazolidinone] | 72% |  | Damage Score [3, 7]: 1.0 ± 0.4 (p=0.009)
CC(=O)OCCN1CSC(=Cc2cc(C(C)(C)C)c(O)c(C(C)(C)C)c2)C1=O [Example 26, 5-{[3,5-bis(1,1-dimethylethyl)-4-hydroxyphenyl]-methylene}-3-[2-(acetyloxy)ethyl]-4-thiazolidinone] | 30.4% | 1.9 ± 0.4 | 
CCN1CSC(=Cc2cc(C(C)(C)C)c(O)c(C(C)(C)C)c2)C1=O [Example 14, 5-{[3,5-Bis(1,1-dimethylethyl)-4-hydroxyphenyl]methylene}-3-ethyl-4-thiazolidinone] | 6% |  | inhibition in vivo at 50 mg/kg [4]: 43%
CN1CCC(=Cc2cc(C(C)(C)C)c(O)c(C(C)(C)C)c2)C1=O [Example 70, 3-{[3,5-bis(1,1-dimethylethyl)-4-hydroxyphenyl]-methylene}-1-methyl-2-pyrrolidinone] |  | 0.7 ± 0.4 (p=0.039) | 
COc1ccc(CN2CSC(=Cc3cc(C(C)(C)C)c(O)c(C(C)(C)C)c3)C2=O)cc1 [Example 36, 5-{[3,5-bis(1,1-dimethylethyl)-4-hydroxyphenyl]methylene}-3-[(4-methoxyphenyl)methyl]-4-thiazolidinone] |  | 2.3 ± 0.4 | 
CCCN1CSC(=Cc2cc(C(C)(C)C)c(O)c(C(C)(C)C)c2)C1=O [Example 15, 5-{[3,5-bis(1,1-dimethylethyl)-4-hydroxyphenyl]methylene}-3-propyl-4-thiazolidinone] | 40% |  | inhibition in vivo at 50 mg/kg [4]: 42%
CN1C[S+]([O-])C(=Cc2cc(C(C)(C)C)c(O)c(C(C)(C)C)c2)C1=O (stereo not drawn) [Example 12, 5-{[3,5-bis(1,1-dimethylethyl)-4-hydroxyphenyl]methylene}-3-methyl-4-thiazolidinone, 1-oxide] | 4.8% | 1.8 ± 0.4 | 
CC(C)(C)c1cc(C=C2C(=O)NC[S+]2[O-])cc(C(C)(C)C)c1O (stereo not drawn) [Example 23, 5-{[3,5-bis(1,1-dimethylethyl)-4-hydroxyphenyl]methylene}-4-thiazolidinone, 1-oxide] | 28% | 2.2 ± 0.4 | 
COCCN1CSC(=Cc2cc(C(C)(C)C)c(O)c(C(C)(C)C)c2)C1=O [Example 7, 5-{[3,5-bis(1,1-dimethylethyl)-4-hydroxyphenyl]methylene}-3-(2-methoxyethyl)-4-thiazolidinone] | 30% | 2.5 ± 0.2 | 
CC(C)(C)c1cc(C=C2SCN(CC#N)C2=O)cc(C(C)(C)C)c1O [Example 38, 5-{[3,5-bis(1,1-dimethylethyl)-4-hydroxyphenyl]methylene}-4-oxo-3-thiazolidineacetonitrile] | 1.8% |  | Damage Score ([3]; 200 mg/kg given orally as a suspension in 2% acacia): 1.6 ± 0.04
CC(C)(C)c1cc(C=C2SCN(CCO)C2=O)cc(C(C)(C)C)c1O [Example 35, 5-{[3,5-bis(1,1-dimethylethyl)-4-hydroxyphenyl]methylene}-3-(2-hydroxyethyl)-4-thiazolidinone] |  | 0.9 ± 0.4 (p<0.001) | Average Life Span ([1]; 0.05 percent by weight of compound in diet): 107 days; inhibition in vivo at 75 mg/kg ([2]; 75 mg/kg P.O. x 29): 86%
CN1CSC(Cc2cc(C(C)(C)C)c(O)c(C(C)(C)C)c2)C1=O (stereo not drawn) [Example 11, 5-{[3,5-bis(1,1-dimethylethyl)-4-hydroxyphenyl]methyl}-3-methyl-4-thiazolidinone] | 19.7% | 2.1 ± 0.3 | 
CC(C)(C)c1cc(C=C2SC(=S)N(C3CC3)C2=O)cc(C(C)(C)C)c1O [Example 18, 5-{[3,5-bis(1,1-dimethylethyl)-4-hydroxyphenyl]methylene}-3-cyclopropyl-2-thioxo-4-thiazolidinone] |  |  | inhibition in vivo at 50 mg/kg [4]: 22%
CN1CS(=O)(=O)C(=Cc2cc(C(C)(C)C)c(O)c(C(C)(C)C)c2)C1=O [Example 13, 5-{[3,5-bis(1,1-dimethylethyl)-4-hydroxyphenyl]methylene}-3-methyl-4-thiazolidinone, 1,1-dioxide] | 8.7% | 2.1 ± 0.3 | 
CC(C)(C)c1cc(C=C2SC(=O)NC2=O)cc(C(C)(C)C)c1O [Example 67, 5-{[3,5-bis(1,1-dimethylethyl)-4-hydroxyphenyl]methylene}-2,4-thiazolidinedione] |  | 1.4 ± 0.3 (p<0.05) | 
Cc1cc(C=C2SCN(C)C2=O)cc(C(C)(C)C)c1O [Example 61, 5-{[3-(1,1-dimethylethyl)-4-hydroxy-5-methylphenyl]methylene}-3-methyl-4-thiazolidinone] | 5.3% |  | Damage Score [3, 7]: 1.7 ± 0.3 (p=0.03)
CN(C)N1C[S+]([O-])C(=Cc2cc(C(C)(C)C)c(O)c(C(C)(C)C)c2)C1=O (stereo not drawn) [Example 22, 5-{[3,5-bis(1,1-dimethylethyl)-4-hydroxyphenyl]methylene}-3-(dimethylamino)-4-thiazolidinone, 1-oxide] | 1% | 2.3 ± 0.3 | 
